The target of this assay is Glutamate--tRNA ligase (Escherichia coli) (UniProt P04805). The assay can be described thus: Compound was tested for the inhibition of Escherichia coli glutamyl-t-RNA synthetase; NI means No inhibition.

Drawing on ChEMBL document CHEMBL1130528, “Synthesis of inhibitors of glutamyl-tRNA synthetase” (Bioorg Med Chem Lett, 1997), this text covers Ki for one compound.

Chain of Glutamate--tRNA ligase (Escherichia coli) (P04805 whole entry, looked up): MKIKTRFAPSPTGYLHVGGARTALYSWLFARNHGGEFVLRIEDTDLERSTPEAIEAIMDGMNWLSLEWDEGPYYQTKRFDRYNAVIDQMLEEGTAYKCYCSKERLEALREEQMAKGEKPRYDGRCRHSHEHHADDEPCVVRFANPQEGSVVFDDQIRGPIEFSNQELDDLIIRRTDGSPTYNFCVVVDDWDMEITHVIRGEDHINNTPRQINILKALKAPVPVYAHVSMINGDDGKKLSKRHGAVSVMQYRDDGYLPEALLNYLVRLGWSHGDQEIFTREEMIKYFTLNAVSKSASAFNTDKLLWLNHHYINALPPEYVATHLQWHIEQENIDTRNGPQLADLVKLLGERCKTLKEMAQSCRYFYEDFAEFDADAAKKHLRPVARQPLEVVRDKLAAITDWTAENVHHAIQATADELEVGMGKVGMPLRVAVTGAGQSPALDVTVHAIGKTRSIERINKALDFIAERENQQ

As to `CCCCCCCCOC(=O)C(N)CCC(=O)O` (stereo unspecified), the Ki result is given as “Not Active”.
